According to PubChem BioAssay AID248 (DTP/NCI, 2004):
“And” between values parts separate entries of the source, which are not always exact repeats. Equal entries are not always repeated. Inconclusive results and toxic doses are left out. Rule as the data show it: active = T/C of 150% or more; inactive = T/C below 125%.

System: L1210 leukemia ip in BDF1 mice, survival T/C
Test: NCI In Vivo Anticancer Drug Screen. Data for tumor model L1210 Leukemia (intraperitoneal) in B6D2F1 (BDF1) mice
Conditions: higher = longer survival
Summary of the method: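 Each compound was tested against a transplantable tumor grown in mice. The endpoint was survival, with treated animals benchmarked against vehicle controls as a simple ratio.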

Measured: T/C

CC(CN1CC(=O)NC(=O)C1)N1CC(=O)NC(=O)C1 (stereo not drawn)
active: endpoint: mean survival time, dose: 1.6 mg/kg/injection, schedule: Q03HX024 (ip), vehicle: steriod suspending solution 156 % of control | endpoint: mean survival time, dose: 12.5 mg/kg/injection, schedule: Q01DX009 (oral), vehicle: steriod suspending solution 156 % of control | endpoint: mean survival time, dose: 12.5 mg/kg/injection, schedule: Q01DX Z (ip), vehicle: steriod suspending solution 154 % of control | endpoint: mean survival time, dose: 18.0 mg/kg/injection, schedule: Q01DX009 (ip), vehicle: saline 151 % of control | endpoint: mean survival time, dose: 25.0 mg/kg/injection, schedule: Q03HX008 (ip), vehicle: steriod suspending solution 155 % of control | endpoint: mean survival time, dose: 27.0 mg/kg/injection, schedule: Q01DX009 (ip), vehicle: saline 155 % of control | endpoint: mean survival time, dose: 60.0 mg/kg/injection, schedule: Q01DX009 (ip), vehicle: saline with Tween-80 156 % of control | endpoint: mean survival time, dose: 100.0 mg/kg/injection, schedule: Q04DX003 (ip), vehicle: steriod suspending solution 151 % of control | endpoint: mean survival time, dose: 100.0 mg/kg/injection, schedule: Q08DX002 (ip), vehicle: steriod suspending solution 151 % of control | endpoint: mean survival time, dose: 128.0 mg/kg/injection, schedule: Q04DX003 (oral), vehicle: saline with Tween-80 155 % of control | endpoint: mean survival time, dose: 200.0 mg/kg/injection, schedule: Q04DX003 (oral), vehicle: steriod suspending solution 153 % of control | endpoint: mean survival time, dose: 400.0 mg/kg/injection, schedule: Q04DX003 (oral), vehicle: steriod suspending solution 155 % of control | endpoint: mean survival time, dose: 400.0 mg/kg/injection, schedule: Q08DX002 (ip), vehicle: steriod suspending solution 156 % of control | endpoint: mean survival time, dose: 512.0 mg/kg/injection, schedule: Q04DX003 (ip), vehicle: saline with Tween-80 155 % of control | endpoint: mean survival time, dose: 800.0 mg/kg/injection, schedule: Q04DX003 (ip), vehicle: Klucel (hydroxypropylcellulose) (HPC) 154 % of control | endpoint: median survival time, dose: 4.0 mg/kg/injection, schedule: Q03HX024 (ip), vehicle: Klucel (hydroxypropylcellulose) (HPC) 153 % of control | endpoint: median survival time, dose: 8.0 mg/kg/injection, schedule: Q03HX008 (ip), vehicle: saline with Tween-80 156 % of control | endpoint: median survival time, dose: 12.5 mg/kg/injection, schedule: Q01DX009 (ip), vehicle: Klucel (hydroxypropylcellulose) (HPC) 150 % of control | endpoint: median survival time, dose: 12.5 mg/kg/injection, schedule: Q03HX008 (ip), vehicle: Klucel (hydroxypropylcellulose) (HPC) 150 % of control | endpoint: median survival time, dose: 16.0 mg/kg/injection, schedule: Q03HX008 (ip), vehicle: saline with Tween-80 154 % of control | endpoint: median survival time, dose: 25.0 mg/kg/injection, schedule: Q01DX009 (ip), vehicle: Klucel (hydroxypropylcellulose) (HPC) 150 % of control | endpoint: median survival time, dose: 25.0 mg/kg/injection, schedule: Q03HX008 (ip), vehicle: Klucel (hydroxypropylcellulose) (HPC) 151 % of control and 155 % of control | endpoint: median survival time, dose: 45.0 mg/kg/injection, schedule: Q03HX024 (ip), vehicle: Klucel (hydroxypropylcellulose) (HPC) 155 % of control | endpoint: median survival time, dose: 64.0 mg/kg/injection, schedule: Q03HX008 (ip), vehicle: saline with Tween-80 156 % of control | endpoint: median survival time, dose: 168.0 mg/kg/injection, schedule: Q04DX003 (ip), vehicle: Klucel (hydroxypropylcellulose) (HPC) 152 % of control and 155 % of control | endpoint: median survival time, dose: 200.0 mg/kg/injection, schedule: Q01DX001 (ip), vehicle: steriod suspending solution 155 % of control | endpoint: median survival time, dose: 400.0 mg/kg/injection, schedule: Q01DX001 (ip), vehicle: steriod suspending solution 150 % of control and 155 % of control | endpoint: median survival time, dose: 512.0 mg/kg/injection, schedule: Q08DX002 (ip), vehicle: saline with Tween-80 150 % of control
inactive: endpoint: mean survival time, dose: 1.6 mg/kg/injection, schedule: Q03HX016 (oral), vehicle: steriod suspending solution 122 % of control | endpoint: mean survival time, dose: 1.6 mg/kg/injection, schedule: Q03HX024 (oral), vehicle: steriod suspending solution 124 % of control | endpoint: mean survival time, dose: 6.25 mg/kg/injection, schedule: Q03HX008 (ip), vehicle: steriod suspending solution 118 % of control | endpoint: mean survival time, dose: 12.5 mg/kg/injection, schedule: Q01DX009 (sc), vehicle: steriod suspending solution 117 % of control | endpoint: mean survival time, dose: 12.5 mg/kg/injection, schedule: Q03HX024 (oral), vehicle: steriod suspending solution 101 % of control | endpoint: mean survival time, dose: 12.5 mg/kg/injection, schedule: Q04DX003 (ip), vehicle: steriod suspending solution 109 % of control | endpoint: mean survival time, dose: 25.0 mg/kg/injection, schedule: Q04DX003 (ip), vehicle: Klucel (hydroxypropylcellulose) (HPC) 109 % of control | endpoint: mean survival time, dose: 25.0 mg/kg/injection, schedule: Q04DX003 (ip), vehicle: steriod suspending solution 103 % of control | endpoint: mean survival time, dose: 25.0 mg/kg/injection, schedule: Q04DX003 (iv), vehicle: water 113 % of control and 122 % of control | endpoint: mean survival time, dose: 25.0 mg/kg/injection, schedule: Q04DX003 (oral), vehicle: steriod suspending solution 115 % of control | endpoint: mean survival time, dose: 32.0 mg/kg/injection, schedule: Q04DX003 (ip), vehicle: saline with Tween-80 104 % of control | endpoint: mean survival time, dose: 50.0 mg/kg/injection, schedule: Q01DX001 (ip), vehicle: saline 107 % of control | endpoint: mean survival time, dose: 50.0 mg/kg/injection, schedule: Q01DX001 (ip), vehicle: steriod suspending solution 107 % of control | endpoint: mean survival time, dose: 50.0 mg/kg/injection, schedule: Q01DX009 (oral), vehicle: steriod suspending solution 98 % of control and 121 % of control | endpoint: mean survival time, dose: 50.0 mg/kg/injection, schedule: Q03HX024 (ip), vehicle: steriod suspending solution 104 % of control | endpoint: mean survival time, dose: 50.0 mg/kg/injection, schedule: Q04DX003 (ip), vehicle: steriod suspending solution 100 % of control | endpoint: mean survival time, dose: 50.0 mg/kg/injection, schedule: Q04DX003 (iv), vehicle: water 112 % of control and 115 % of control and 122 % of control | endpoint: mean survival time, dose: 50.0 mg/kg/injection, schedule: Q06HX012 (oral), vehicle: steriod suspending solution 101 % of control | endpoint: mean survival time, dose: 64.0 mg/kg/injection, schedule: Q04DX003 (ip), vehicle: saline with Tween-80 124 % of control | endpoint: mean survival time, dose: 100.0 mg/kg/injection, schedule: Q01DX001 (ip), vehicle: saline 113 % of control | endpoint: mean survival time, dose: 100.0 mg/kg/injection, schedule: Q01DX001 (oral), vehicle: steriod suspending solution 111 % of control | endpoint: mean survival time, dose: 100.0 mg/kg/injection, schedule: Q01DX009 (oral), vehicle: steriod suspending solution 95 % of control and 103 % of control | endpoint: mean survival time, dose: 100.0 mg/kg/injection, schedule: Q01DX Z (ip), vehicle: steriod suspending solution 113 % of control | endpoint: mean survival time, dose: 100.0 mg/kg/injection, schedule: Q04DX003 (iv), vehicle: water 112 % of control and 115 % of control and 119 % of control | endpoint: mean survival time, dose: 100.0 mg/kg/injection, schedule: Q08DX002 (oral), vehicle: steriod suspending solution 122 % of control | endpoint: mean survival time, dose: 120.0 mg/kg/injection, schedule: Q01DX009 (ip), vehicle: saline with Tween-80 118 % of control | endpoint: mean survival time, dose: 128.0 mg/kg/injection, schedule: Q01DX009 (ip), vehicle: saline with Tween-80 112 % of control | endpoint: mean survival time, dose: 200.0 mg/kg/injection, schedule: Q01DX001 (ip), vehicle: saline 120 % of control | endpoint: mean survival time, dose: 200.0 mg/kg/injection, schedule: Q01DX001 (oral), vehicle: steriod suspending solution 107 % of control | endpoint: mean survival time, dose: 200.0 mg/kg/injection, schedule: Q08DX002 (oral), vehicle: steriod suspending solution 120 % of control | endpoint: mean survival time, dose: 240.0 mg/kg/injection, schedule: Q01DX009 (ip), vehicle: saline with Tween-80 96 % of control | endpoint: mean survival time, dose: 400.0 mg/kg/injection, schedule: Q01DX001 (oral), vehicle: steriod suspending solution 114 % of control | endpoint: mean survival time, dose: 400.0 mg/kg/injection, schedule: Q08DX002 (oral), vehicle: steriod suspending solution 119 % of control | endpoint: mean survival time, dose: 800.0 mg/kg/injection, schedule: Q04DX003 (ip), vehicle: water 120 % of control | endpoint: mean survival time, dose: 800.0 mg/kg/injection, schedule: Q08DX002 (ip), vehicle: steriod suspending solution 111 % of control | endpoint: mean survival time, dose: 1024.0 mg/kg/injection, schedule: Q04DX003 (oral), vehicle: saline with Tween-80 120 % of control | endpoint: mean survival time, dose: 2048.0 mg/kg/injection, schedule: Q04DX003 (oral), vehicle: saline with Tween-80 94 % of control | endpoint: median survival time, dose: 8.0 mg/kg/injection, schedule: Q01DX009 (sc), vehicle: saline with Tween-80 120 % of control | endpoint: median survival time, dose: 16.0 mg/kg/injection, schedule: Q03HX024 (ip), vehicle: saline with Tween-80 113 % of control | endpoint: median survival time, dose: 50.0 mg/kg/injection, schedule: Q03HX008 (ip), vehicle: Klucel (hydroxypropylcellulose) (HPC) 115 % of control | endpoint: median survival time, dose: 64.0 mg/kg/injection, schedule: Q01DX001 (ip), vehicle: saline with Tween-80 105 % of control | endpoint: median survival time, dose: 64.0 mg/kg/injection, schedule: Q03HX016 (ip), vehicle: saline with Tween-80 96 % of control | endpoint: median survival time, dose: 64.0 mg/kg/injection, schedule: Q08DX002 (ip), vehicle: saline with Tween-80 109 % of control | endpoint: median survival time, dose: 100.0 mg/kg/injection, schedule: Q01DX001 (ip), vehicle: other 122 % of control | endpoint: median survival time, dose: 100.0 mg/kg/injection, schedule: Q01DX001 (ip), vehicle: steriod suspending solution 122 % of control | endpoint: median survival time, dose: 100.0 mg/kg/injection, schedule: Q04DX003 (ip), vehicle: other 122 % of control | endpoint: median survival time, dose: 108.0 mg/kg/injection, schedule: Q01DX001 (ip), vehicle: Klucel (hydroxypropylcellulose) (HPC) 114 % of control and 120 % of control | endpoint: median survival time, dose: 128.0 mg/kg/injection, schedule: Q01DX001 (ip), vehicle: saline with Tween-80 109 % of control | endpoint: median survival time, dose: 128.0 mg/kg/injection, schedule: Q01DX009 (sc), vehicle: saline with Tween-80 107 % of control | endpoint: median survival time, dose: 128.0 mg/kg/injection, schedule: Q04DX003 (ip), vehicle: saline with Tween-80 124 % of control | endpoint: median survival time, dose: 128.0 mg/kg/injection, schedule: Q08DX002 (ip), vehicle: saline with Tween-80 119 % of control | endpoint: median survival time, dose: 180.0 mg/kg/injection, schedule: Q01DX001 (ip), vehicle: Klucel (hydroxypropylcellulose) (HPC) 118 % of control and 120 % of control | endpoint: median survival time, dose: 256.0 mg/kg/injection, schedule: Q01DX001 (ip), vehicle: saline with Tween-80 113 % of control | endpoint: median survival time, dose: 400.0 mg/kg/injection, schedule: Q04DX003 (ip), vehicle: other 94 % of control | endpoint: median survival time, dose: 700.0 mg/kg/injection, schedule: Q04DX003 (ip), vehicle: Klucel (hydroxypropylcellulose) (HPC) 105 % of control and 106 % of control
